Source: PMC4076210, “Discovery of Novel AKT Inhibitors with Enhanced Anti-Tumor Effects in Combination with the MEK Inhibitor” (PLoS ONE, 2014)
Read-outs that look alike come from different tables or passages of the source.

Assays:
Aurora-A(h) = molecular target: T1, Aurora-A(h) (Homo sapiens, UniProt O14965); assay: Kinase panel; assay type: biochemical
T1 construct: purchased Millipore KinaseProfiler
T1 sequence (O14965 1-403): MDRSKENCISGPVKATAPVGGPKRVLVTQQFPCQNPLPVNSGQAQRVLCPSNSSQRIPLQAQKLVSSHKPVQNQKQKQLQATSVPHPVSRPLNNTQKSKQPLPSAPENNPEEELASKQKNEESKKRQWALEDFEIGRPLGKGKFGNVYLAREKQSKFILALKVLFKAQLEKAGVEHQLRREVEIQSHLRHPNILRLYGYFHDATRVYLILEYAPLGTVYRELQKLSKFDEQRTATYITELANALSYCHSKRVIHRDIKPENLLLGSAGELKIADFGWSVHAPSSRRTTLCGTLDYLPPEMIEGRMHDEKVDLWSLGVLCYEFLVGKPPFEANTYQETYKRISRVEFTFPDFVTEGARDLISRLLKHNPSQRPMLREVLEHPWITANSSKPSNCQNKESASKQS

Bmx(h) = molecular target: T2, Bmx(h) (Homo sapiens, UniProt P51813); assay: Kinase panel; assay type: biochemical
T2 construct: purchased Millipore KinaseProfiler
T2 sequence (P51813 1-675): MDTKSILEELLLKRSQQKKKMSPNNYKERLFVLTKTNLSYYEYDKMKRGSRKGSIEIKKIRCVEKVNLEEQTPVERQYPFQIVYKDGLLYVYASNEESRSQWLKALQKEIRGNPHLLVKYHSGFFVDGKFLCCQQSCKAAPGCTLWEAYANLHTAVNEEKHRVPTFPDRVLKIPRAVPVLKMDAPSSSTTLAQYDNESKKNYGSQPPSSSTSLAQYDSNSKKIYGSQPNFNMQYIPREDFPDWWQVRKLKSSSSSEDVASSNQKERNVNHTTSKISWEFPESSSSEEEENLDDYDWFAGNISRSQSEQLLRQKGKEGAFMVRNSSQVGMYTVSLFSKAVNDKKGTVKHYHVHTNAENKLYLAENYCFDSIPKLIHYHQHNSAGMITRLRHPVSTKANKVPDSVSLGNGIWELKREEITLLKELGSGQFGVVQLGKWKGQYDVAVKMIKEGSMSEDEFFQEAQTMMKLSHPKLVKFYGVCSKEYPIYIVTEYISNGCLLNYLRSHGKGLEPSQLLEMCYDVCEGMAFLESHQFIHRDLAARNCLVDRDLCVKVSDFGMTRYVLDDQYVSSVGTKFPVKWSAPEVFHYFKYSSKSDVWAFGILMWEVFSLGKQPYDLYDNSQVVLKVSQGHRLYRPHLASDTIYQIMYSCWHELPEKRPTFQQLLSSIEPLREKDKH

CK1δ(h) = molecular target: T3, CK1δ(h) (Homo sapiens, UniProt P48730); assay: Kinase panel; assay type: biochemical
T3 construct: purchased Millipore KinaseProfiler

LKB1(h) = molecular target: T4, LKB1(h) (Homo sapiens, UniProt Q15831); assay: Kinase panel; assay type: biochemical
T4 construct: purchased Millipore KinaseProfiler
T4 sequence (Q15831 1-433): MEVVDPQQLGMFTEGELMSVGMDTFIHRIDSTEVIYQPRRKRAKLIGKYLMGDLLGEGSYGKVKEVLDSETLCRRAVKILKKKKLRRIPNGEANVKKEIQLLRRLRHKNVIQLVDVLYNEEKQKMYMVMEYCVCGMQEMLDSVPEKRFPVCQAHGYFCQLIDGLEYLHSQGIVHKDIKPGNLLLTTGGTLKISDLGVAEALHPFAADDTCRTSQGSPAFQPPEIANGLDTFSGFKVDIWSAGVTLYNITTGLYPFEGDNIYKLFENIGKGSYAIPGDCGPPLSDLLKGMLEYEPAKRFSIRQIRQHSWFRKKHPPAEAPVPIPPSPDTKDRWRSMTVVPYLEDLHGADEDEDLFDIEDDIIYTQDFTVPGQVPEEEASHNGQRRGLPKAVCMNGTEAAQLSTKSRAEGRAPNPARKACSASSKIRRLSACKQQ
T4 sequence (Q7RTN6 1-431 partner): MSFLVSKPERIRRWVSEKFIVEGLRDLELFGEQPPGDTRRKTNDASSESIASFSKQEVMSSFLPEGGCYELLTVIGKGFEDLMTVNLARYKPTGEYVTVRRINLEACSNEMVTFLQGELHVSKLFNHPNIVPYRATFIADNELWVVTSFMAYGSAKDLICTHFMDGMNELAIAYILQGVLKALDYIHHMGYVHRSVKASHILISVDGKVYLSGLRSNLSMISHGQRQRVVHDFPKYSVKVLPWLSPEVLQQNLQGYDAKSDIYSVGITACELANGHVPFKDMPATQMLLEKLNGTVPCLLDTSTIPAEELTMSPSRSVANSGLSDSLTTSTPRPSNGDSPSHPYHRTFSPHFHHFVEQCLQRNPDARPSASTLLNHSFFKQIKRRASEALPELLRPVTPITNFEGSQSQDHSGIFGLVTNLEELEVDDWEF
T4 sequence (Q9Y376 1-341 partner): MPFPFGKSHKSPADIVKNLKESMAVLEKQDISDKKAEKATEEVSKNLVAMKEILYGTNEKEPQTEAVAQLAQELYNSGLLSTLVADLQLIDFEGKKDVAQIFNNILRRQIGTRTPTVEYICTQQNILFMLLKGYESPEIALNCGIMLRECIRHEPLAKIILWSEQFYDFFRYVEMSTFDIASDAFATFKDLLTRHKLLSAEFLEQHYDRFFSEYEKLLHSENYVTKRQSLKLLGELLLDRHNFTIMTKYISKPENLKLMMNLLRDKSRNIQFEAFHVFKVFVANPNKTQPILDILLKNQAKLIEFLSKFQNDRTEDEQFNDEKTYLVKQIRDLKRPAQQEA

PKCγ(h) = molecular target: T5, PKCγ(h) (Homo sapiens, UniProt P05129); assay: Kinase panel; assay type: biochemical
T5 construct: purchased Millipore KinaseProfiler

SRPK2(h) = molecular target: T6, SRPK2(h) (Homo sapiens, UniProt P78362); assay: Kinase panel; assay type: biochemical
T6 construct: purchased Millipore KinaseProfiler

PKCγ = PKCγ (Homo sapiens, UniProt P05129); assay: Kinase IC50 assay; assay type: biochemical
[1] = system: phospho-PRAS40 in BT474 tumor xenografts; assay: In vivo dose response pharmacodynamic assay (phospho-PRAS40 ELISA); design: species or system mouse; settings: 2 h post last dose
Experimental: Protein lysates were analyzed by phospho-PRAS40 ELISA according to the methods described above. Concentration of the test compounds in the tissue and blood was analyzed using protein precipitation with acetonitrile, followed by HPLC/MS/MS analysis using positive ion atmospheric pressure chemical ionization or Turbo ionspray ionization (API 4000 or API 5000, Applied Biosystems). The lower level of detection of compound was 10 ng/mL and the assays were linear over a 100- to a 1000-fold drug concentration range.

T6 sequence (P78362 whole entry): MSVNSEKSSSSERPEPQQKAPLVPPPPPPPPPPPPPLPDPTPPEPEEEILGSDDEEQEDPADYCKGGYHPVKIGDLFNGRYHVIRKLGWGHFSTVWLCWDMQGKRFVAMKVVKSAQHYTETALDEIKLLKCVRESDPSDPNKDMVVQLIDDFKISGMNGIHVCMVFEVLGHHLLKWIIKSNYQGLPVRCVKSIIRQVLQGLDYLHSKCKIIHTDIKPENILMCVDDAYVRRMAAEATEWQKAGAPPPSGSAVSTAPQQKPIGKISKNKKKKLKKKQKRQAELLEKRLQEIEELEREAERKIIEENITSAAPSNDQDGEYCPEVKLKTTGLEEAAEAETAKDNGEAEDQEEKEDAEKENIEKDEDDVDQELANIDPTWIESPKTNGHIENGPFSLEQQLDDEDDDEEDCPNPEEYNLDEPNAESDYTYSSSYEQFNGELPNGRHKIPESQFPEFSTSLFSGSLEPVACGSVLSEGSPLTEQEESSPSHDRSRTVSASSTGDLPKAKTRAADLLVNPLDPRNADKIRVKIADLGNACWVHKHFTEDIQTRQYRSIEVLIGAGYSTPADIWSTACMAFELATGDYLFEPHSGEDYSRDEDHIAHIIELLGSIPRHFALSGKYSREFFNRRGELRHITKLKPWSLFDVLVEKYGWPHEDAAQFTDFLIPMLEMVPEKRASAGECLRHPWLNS
T3 sequence (P48730 whole entry): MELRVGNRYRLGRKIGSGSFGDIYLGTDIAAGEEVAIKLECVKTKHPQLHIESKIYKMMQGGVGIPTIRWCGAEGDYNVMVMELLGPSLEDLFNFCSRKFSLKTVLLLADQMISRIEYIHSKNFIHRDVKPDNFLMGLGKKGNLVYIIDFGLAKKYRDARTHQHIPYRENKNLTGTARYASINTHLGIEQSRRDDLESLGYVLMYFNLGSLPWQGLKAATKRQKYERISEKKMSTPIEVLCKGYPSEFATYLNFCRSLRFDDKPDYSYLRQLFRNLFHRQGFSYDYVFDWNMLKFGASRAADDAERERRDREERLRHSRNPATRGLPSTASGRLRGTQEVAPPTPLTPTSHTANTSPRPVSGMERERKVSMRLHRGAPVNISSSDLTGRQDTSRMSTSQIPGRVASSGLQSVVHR

Cn1ncc(Cl)c1-c1cc(C(=O)N[C@H](CN)Cc2cccc(F)c2)sc1Cl [GSK2110183]
inhibition at 0.5 µM (Aurora-A(h)): 0% | inhibition at 10 µM (Aurora-A(h)): 23% | inhibition at 0.5 µM (Bmx(h)): -2% | inhibition at 10 µM (Bmx(h)): 18% | inhibition at 0.5 µM (CK1δ(h)): -1% | inhibition at 10 µM (CK1δ(h)): 49% | inhibition at 0.5 µM (LKB1(h)): -2% | inhibition at 10 µM (LKB1(h)): 40% | inhibition at 0.5 µM (PKCγ(h)): 39% | inhibition at 10 µM (PKCγ(h)): 90% | inhibition at 0.5 µM (SRPK2(h)): 26% | inhibition at 10 µM (SRPK2(h)): 37% | IC50 (PKCγ): > 1000 nM | decrease of PRAS40 phosphorylation in tumors ([1]; 10 mg/kg QDx7 oral): 8% | decrease of PRAS40 phosphorylation in tumors ([1]; 30 mg/kg QDx7 oral): 37% | decrease of PRAS40 phosphorylation in tumors ([1]; 100 mg/kg QDx7 oral): 61%

Cn1ncc(Cl)c1-c1cc(C(=O)N[C@H](CN)Cc2ccc(F)c(F)c2)oc1Cl [GSK2141795]
inhibition at 0.5 µM (Aurora-A(h); 0.5 µM, read-out: % Inhibition): -10% | inhibition at 10 µM (Aurora-A(h); 10 µM, read-out: % Inhibition): 31% | inhibition at 0.5 µM (Bmx(h); 0.5 µM, read-out: % Inhibition): -6% | inhibition at 10 µM (Bmx(h); 10 µM, read-out: % Inhibition): 21% | inhibition at 0.5 µM (CK1δ(h); 0.5 µM, read-out: % Inhibition): -2% | inhibition at 10 µM (CK1δ(h); 10 µM, read-out: % Inhibition): 63% | inhibition at 0.5 µM (LKB1(h); 0.5 µM, read-out: % Inhibition): -18% | inhibition at 10 µM (LKB1(h); 10 µM, read-out: % Inhibition): 18% | inhibition at 0.5 µM (PKCγ(h); 0.5 µM, read-out: % Inhibition): 63% | inhibition at 10 µM (PKCγ(h); 10 µM, read-out: % Inhibition): 95% | inhibition at 0.5 µM (SRPK2(h); 0.5 µM, read-out: % Inhibition): 1% | inhibition at 10 µM (SRPK2(h); 10 µM, read-out: % Inhibition): 27% | IC50 (PKCγ): 200 nM | decrease of PRAS40 phosphorylation in tumors ([1]; 30 mg/kg QDx7 oral): 62%
